The text below walks through data of patent publication US20260176320A1, “MODULATORS OF G-PROTEIN COUPLED RECEPTORS” (priority 2018, published 2026).

The target of one assay is T1, GIP-R (Homo sapiens, UniProt P48546).
T1 sequence (P48546 22-466): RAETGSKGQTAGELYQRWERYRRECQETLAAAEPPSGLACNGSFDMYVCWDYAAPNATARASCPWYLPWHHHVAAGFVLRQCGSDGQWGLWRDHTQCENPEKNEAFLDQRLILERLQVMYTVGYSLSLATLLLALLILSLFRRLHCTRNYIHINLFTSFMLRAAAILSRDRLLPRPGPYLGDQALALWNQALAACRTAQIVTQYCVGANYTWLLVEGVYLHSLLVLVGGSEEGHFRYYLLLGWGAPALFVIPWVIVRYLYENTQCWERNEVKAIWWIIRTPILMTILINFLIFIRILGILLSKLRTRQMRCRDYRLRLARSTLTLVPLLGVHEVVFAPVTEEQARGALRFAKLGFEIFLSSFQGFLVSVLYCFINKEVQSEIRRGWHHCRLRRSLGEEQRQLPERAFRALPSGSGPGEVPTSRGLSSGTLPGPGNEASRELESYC
The experiment in a line: HitHunter cAMP assay (GIP-R). It is filed as cell-based. The conditions noted are these: cAMP; for Emax: read-out: (Emax) GIP-R; for EC50: read-out: EC50 GIP-R/nM. Put shortly:
(§1)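 Luminescent readout of cAMP by enzyme-fragment immunocompetition gave agonist concentration-response data. Cells (10,000/well) sat in HBSS buffer containing IBMX 625 μM, HEPES 10 mM and BSA 0.2%, exposed to agonist for 30 min at room temperature.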
For orientation: cAMP levels reflect the balance of adenylyl cyclase and phosphodiesterase activity.

Another assay addresses GLP-1R (Homo sapiens, UniProt P43220). The experiment in a line: HitHunter cAMP assay (GLP-1R). It is filed as cell-based. The note with it: cAMP; for Emax: read-out: (Emax) GLP-1R; for EC50: read-out: EC50 GLP-1R/nM. Summed up:
as §1

Read-outs that look alike come from different tables or passages of the source.

Sequence of GLP-1R (P43220 24-463): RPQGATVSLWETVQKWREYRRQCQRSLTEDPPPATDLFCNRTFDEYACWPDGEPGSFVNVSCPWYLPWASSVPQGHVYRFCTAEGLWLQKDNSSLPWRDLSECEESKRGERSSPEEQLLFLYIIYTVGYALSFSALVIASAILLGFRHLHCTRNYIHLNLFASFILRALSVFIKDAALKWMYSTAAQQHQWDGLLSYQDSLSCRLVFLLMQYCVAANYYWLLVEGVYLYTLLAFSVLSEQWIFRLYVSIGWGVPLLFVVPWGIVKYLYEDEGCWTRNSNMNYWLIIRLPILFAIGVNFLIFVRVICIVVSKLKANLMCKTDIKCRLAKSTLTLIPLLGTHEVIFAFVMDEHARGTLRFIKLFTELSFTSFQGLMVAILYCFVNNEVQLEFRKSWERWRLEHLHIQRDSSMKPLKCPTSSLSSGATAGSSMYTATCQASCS

As usually defined, the Emax is the greatest response seen or fitted, relative to the assay's reference. As to `CCCCCCCCCCCCCCCC(=O)N[C@@H](CCC(=O)NCCCC[C@H](NC(=O)[C@H](CO)NC(=O)[C@@H]1CCCN1C(=O)[C@@H]1CCCN1C(=O)[C@@H]1CCCN1C(=O)[C@H](C)NC(=O)CNC(=O)[C@H](CO)NC(=O)[C@H](CO)NC(=O)[C@@H]1CCCN1C(=O)CNC(=O)CNC(=O)[C@H](C)NC(=O)[C@H](CC(C)C)NC(=O)[C@H](CC(C)C)NC(=O)[C@H](Cc1c[nH]c2ccccc12)NC(=O)[C@H](CC(N)=O)NC(=O)[C@@H](NC(=O)[C@H](Cc1ccccc1)NC(=O)[C@H](CCC(=O)O)NC(=O)C(C)(C)NC(=O)[C@H](C)NC(=O)[C@H](C)NC(=O)[C@H](CCC(N)=O)NC(=O)[C@H](CCCCN)NC(=O)[C@H](CC(=O)O)NC(=O)[C@H](CC(C)C)NC(=O)[C@H](Cc1ccc(O)cc1)NC(=O)[C@@H](NC(=O)[C@H](CO)NC(=O)[C@H](Cc1ccc(O)cc1)NC(=O)[C@H](CC(=O)O)NC(=O)[C@H](CO)NC(=O)[C@@H](NC(=O)[C@H](Cc1ccccc1)NC(=O)[C@@H](NC(=O)CNC(=O)[C@H](CCCC(=O)O)NC(=O)CSCC(=O)NCCN1CCCCC1=O)[C@@H](C)O)[C@@H](C)O)[C@@H](C)CC)C(C)C)C(N)=O)C(=O)O` [Compound 219], the Emax at GIP-R (Table 3A) came to 75%; on GLP-1R (Table 3A) it was 89%. Moreover, the EC50 at GIP-R (Table 3A) lay in the range of 1 to 10 nM; at GLP-1R (Table 3A), 10 to 100 nM.
On to `CCCCCCCCCCCCCCCC(=O)N[C@@H](CCC(=O)NCCCC[C@H](NC(=O)[C@H](CO)NC(=O)[C@@H]1CCCN1C(=O)[C@@H]1CCCN1C(=O)[C@@H]1CCCN1C(=O)[C@H](C)NC(=O)CNC(=O)[C@H](CO)NC(=O)[C@H](CO)NC(=O)[C@@H]1CCCN1C(=O)CNC(=O)CNC(=O)[C@H](C)NC(=O)[C@H](CC(C)C)NC(=O)[C@H](CC(C)C)NC(=O)[C@H](Cc1c[nH]c2ccccc12)NC(=O)[C@H](CC(N)=O)NC(=O)[C@@H](NC(=O)[C@H](Cc1ccccc1)NC(=O)[C@H](CCC(=O)O)NC(=O)C(C)(C)NC(=O)[C@H](C)NC(=O)[C@H](C)NC(=O)[C@H](CCC(N)=O)NC(=O)[C@H](CCCCN)NC(=O)[C@H](CC(=O)O)NC(=O)[C@H](CC(C)C)NC(=O)[C@H](Cc1ccc(O)cc1)NC(=O)[C@@H](NC(=O)[C@H](CO)NC(=O)[C@H](Cc1ccc(O)cc1)NC(=O)[C@H](CC(=O)O)NC(=O)[C@H](CO)NC(=O)[C@@H](NC(=O)[C@H](Cc1ccccc1)NC(=O)[C@@H](NC(=O)CNC(=O)[C@H](CCC(=O)O)NC(=O)CSCC(=O)NCCN1C[C@H](C)CC1=O)[C@@H](C)O)[C@@H](C)O)[C@@H](C)CC)C(C)C)C(N)=O)C(=O)O` (single isomer, unassigned) [Compound 28], for which the Emax at GIP-R (Table 3) is 57%; on GIP-R (Table 3A), 57%; at GLP-1R (Table 3), 101%; at GLP-1R (Table 3A), 101%.
`CCCCCCCCCCCCCCCC(=O)N[C@@H](CCC(=O)NCCCC[C@H](NC(=O)[C@H](CO)NC(=O)[C@@H]1CCCN1C(=O)[C@@H]1CCCN1C(=O)[C@@H]1CCCN1C(=O)[C@H](C)NC(=O)CNC(=O)[C@H](CO)NC(=O)[C@H](CO)NC(=O)[C@@H]1CCCN1C(=O)CNC(=O)CNC(=O)[C@H](C)NC(=O)[C@H](CC(C)C)NC(=O)[C@H](CC(C)C)NC(=O)[C@H](Cc1c[nH]c2ccccc12)NC(=O)[C@H](CC(N)=O)NC(=O)[C@@H](NC(=O)[C@H](Cc1ccccc1)NC(=O)[C@H](CCC(=O)O)NC(=O)C(C)(C)NC(=O)[C@H](C)NC(=O)[C@H](C)NC(=O)[C@H](CCC(N)=O)NC(=O)[C@H](CCCCN)NC(=O)[C@H](CC(=O)O)NC(=O)[C@H](CC(C)C)NC(=O)[C@H](Cc1ccc(O)cc1)NC(=O)[C@@H](NC(=O)[C@H](CO)NC(=O)[C@H](Cc1ccc(O)cc1)NC(=O)[C@H](CC(=O)O)NC(=O)[C@H](CO)NC(=O)[C@@H](NC(=O)[C@H](Cc1ccccc1)NC(=O)[C@@H](NC(=O)CNC(=O)[C@H](CCC(=O)O)NC(=O)CSCC(=O)NCCN1C(=O)CSC1=O)[C@@H](C)O)[C@@H](C)O)[C@@H](C)CC)C(C)C)C(=O)O)C(=O)O` [Compound 199]: at GIP-R (Table 3A), the Emax turned out to be 78% and the EC50 was 1 to 10 nM. For the same molecule, on GLP-1R (Table 3A), the Emax is 92% and the EC50 fell in the range of 0.1 to 1 nM.
As to `CCCCCCCCCCCCCCCC(=O)N[C@@H](CCC(=O)NCCCC[C@H](NC(=O)[C@H](CO)NC(=O)[C@@H]1CCCN1C(=O)[C@@H]1CCCN1C(=O)[C@@H]1CCCN1C(=O)[C@H](C)NC(=O)CNC(=O)[C@H](CO)NC(=O)[C@H](CO)NC(=O)[C@@H]1CCCN1C(=O)CNC(=O)CNC(=O)[C@H](C)NC(=O)[C@H](CC(C)C)NC(=O)[C@H](CC(C)C)NC(=O)[C@H](Cc1c[nH]c2ccccc12)NC(=O)[C@H](CC(N)=O)NC(=O)[C@@H](NC(=O)[C@H](Cc1ccccc1)NC(=O)[C@H](CCC(=O)O)NC(=O)C(C)(C)NC(=O)[C@H](C)NC(=O)[C@H](C)NC(=O)[C@H](CCC(N)=O)NC(=O)[C@H](CCCCN)NC(=O)[C@H](CC(=O)O)NC(=O)[C@H](CC(C)C)NC(=O)[C@H](Cc1ccc(O)cc1)NC(=O)[C@@H](NC(=O)[C@H](CO)NC(=O)[C@H](Cc1ccc(O)cc1)NC(=O)[C@H](CC(=O)O)NC(=O)[C@H](CO)NC(=O)[C@@H](NC(=O)[C@H](Cc1ccccc1)NC(=O)[C@@H](NC(=O)CNC(=O)[C@H](CCC(=O)O)NC(=O)CSCC(=O)NCCN1C[C@@H](C)CC1=O)[C@@H](C)O)[C@@H](C)O)[C@@H](C)CC)C(C)C)C(N)=O)C(=O)O` (single isomer, unassigned) [Compound 64], the Emax on GIP-R (Table 3) amounted to 35%; on GIP-R (Table 3A) it was 35%; at GLP-1R (Table 3), 97%; on GLP-1R (Table 3A), 97%.
As to `CCCCCCCCCCCCCCCC(=O)N[C@@H](CCC(=O)NCCCC[C@H](NC(=O)[C@H](CO)NC(=O)[C@@H]1CCCN1C(=O)[C@@H]1CCCN1C(=O)[C@@H]1CCCN1C(=O)[C@H](C)NC(=O)CNC(=O)[C@H](CO)NC(=O)[C@H](CO)NC(=O)[C@@H]1CCCN1C(=O)CNC(=O)CNC(=O)[C@H](C)NC(=O)[C@H](CC(C)C)NC(=O)[C@H](CC(C)C)NC(=O)[C@H](Cc1c[nH]c2ccccc12)NC(=O)[C@H](CC(N)=O)NC(=O)[C@@H](NC(=O)[C@H](Cc1ccccc1)NC(=O)[C@H](CCC(=O)O)NC(=O)C(C)(C)NC(=O)[C@H](C)NC(=O)[C@H](C)NC(=O)[C@H](CCC(N)=O)NC(=O)[C@H](CCCCN)NC(=O)[C@H](CC(=O)O)NC(=O)[C@](C)(CC(C)C)NC(=O)[C@H](Cc1ccc(O)cc1)NC(=O)[C@@H](NC(=O)[C@H](CO)NC(=O)[C@H](Cc1ccc(O)cc1)NC(=O)[C@H](CC(=O)O)NC(=O)[C@H](CO)NC(=O)[C@@H](NC(=O)[C@H](Cc1ccccc1)NC(=O)[C@@H](NC(=O)CNC(=O)[C@H](CCC(=O)O)NC(=O)CSCC(=O)NCCN1C(=O)CSC1=O)[C@@H](C)O)[C@@H](C)O)[C@@H](C)CC)C(C)C)C(N)=O)C(=O)O` [Compound 70], the Emax at GIP-R (Table 3) turned out to be 86%; at GIP-R (Table 3A), 86%; at GLP-1R (Table 3), 102%; on GLP-1R (Table 3A), 102%. Besides, the EC50 at GIP-R (Table 3) was in the range of 1 to 10 nM; at GIP-R (Table 3A), 1 to 10 nM; on GLP-1R (Table 3) it was 0.1 to 1 nM; on GLP-1R (Table 3A) it was 0.1 to 1 nM.
